Reference: ChEMBL document CHEMBL1137703, “Predictive QSAR modeling of HIV reverse transcriptase inhibitor TIBO derivatives” (Eur J Med Chem, 2009)

What follows are molecules tested against Human immunodeficiency virus type 1 reverse transcriptase (Human immunodeficiency virus 1, UniProt Q72547) (assay: Inhibition of HIV1 reverse transcriptase). Conditions: not given.
`CCCN1Cc2cccc3[nH]c(=O)n(c23)CC1C` (configuration not stated) was tested, and the “log(1/IC50)” value was 4.22.
With `CC1CN(CC2CC2)Cc2cc(Cl)cc3[nH]c(=S)n1c23` (configuration not stated) the “log(1/IC50)” value was 5.66.
With `CCCN1CCn2c(=S)[nH]c3cccc(c32)C1C` (configuration not stated) the “log(1/IC50)” value was 5.61.
For `CCCN1Cc2cccc3[nH]c(=S)n(c23)CC1C` (configuration not stated), the “log(1/IC50)” value was 5.78.

Same assay, conditions: read-out: log(1/IC50) (converted)
`C=C(C)N1Cc2cccc3[nH]c(=O)n(c23)CC1C` (configuration not stated) was tested, and the IC50 was 34.7 µM.
For `C=C(CC)N1CCn2c(=O)[nH]c3cccc(c32)C1`, the IC50 was 37.2 µM.
With `C[C@H]1Cn2c(=O)[nH]c3cc(N(C)C)cc(c32)CN1CC1CC1` the IC50 was 6.65 µM.
Work on `CC(C)=CN1Cc2c(I)ccc3[nH]c(=S)n(c23)C[C@@H]1C` yielded an IC50 of 0.0479 µM.
In the case of `C[C@H]1Cn2c(=O)[nH]c3ccc(N(C)C)c(c32)CN1CC1CC1`, the IC50 is reported as 6.65 µM.
Molecule `CCCN1CCn2c(=O)[nH]c3cccc(c32)C1` has an IC50 of 89.1 µM.
Molecule `C[C@H]1Cn2c(=O)[nH]c3cc([N+](=O)[O-])cc(c32)CN1CC1CC1` has an IC50 of 33.4 µM.
Molecule `CSc1ccc2[nH]c(=S)n3c2c1CN(C=C(C)C)[C@@H](C)C3` has an IC50 of 0.005 µM.
Work on `CC(C)=CN1Cc2cccc3[nH]c(=S)n(c23)C[C@@H]1C` yielded an IC50 of 0.0442 µM.
`C=C(C)N1Cc2cccc3[nH]c(=S)n(c23)C[C@@H]1C` showed an IC50 of 0.0263 µM.
For `C[C@H]1Cn2c(=S)[nH]c3cc([N+](=O)[O-])cc(c32)CN1CC1CC1`, the IC50 was 2.45 µM.
`C=C(C)N1Cc2cccc3[nH]c(=O)n(c23)CC1(C)C` was tested, and the IC50 was 22.9 µM.
For `CC(C)=CN1CCn2c(=O)[nH]c3cc(Cl)cc(c32)C1C` (configuration not stated), the IC50 was 0.162 µM.
With `CC(C)=CN1Cc2cccc3[nH]c(=O)n(c23)[C@@H](C)[C@H]1C` (relative stereo) the IC50 was 56.2 µM.
With `CC(C)=CN1CCn2c(=S)[nH]c3ccc(Cl)c(c32)C1` the IC50 was 0.0457 µM.
`CC(C)=CN1CCn2c(=O)[nH]c3cccc(c32)C1C` (configuration not stated) was tested, and the IC50 was 12 µM.
`CC(C)=CN1CCn2c(=S)[nH]c3cc(Cl)cc(c32)C1C` (configuration not stated) was tested, and the IC50 was 0.0229 µM.
With `CCCN1Cc2cccc3[nH]c(=O)n(c23)C(C(C)C)C1` (configuration not stated) the IC50 was 74.1 µM.
`CC(C)=CN1Cc2cc(Cl)cc3[nH]c(=S)n(c23)C[C@@H]1C` gave an IC50 of 0.0427 µM.
`CC(C)=CN1CCn2c(=O)[nH]c3ccc(Cl)c(c32)C1C` (configuration not stated) gave an IC50 of 0.145 µM.
For `CC(C)=CN1Cc2c(Br)ccc3[nH]c(=O)n(c23)C[C@@H]1C`, the IC50 was 0.0474 µM.
Work on `CC(C)=CN1[C@H](C)c2cccc3[nH]c(=S)n(c23)C[C@@H]1C` (relative stereo) yielded an IC50 of 1.15 µM.
For `CC(C)=CN1C[C@H](C)n2c(=S)[nH]c3cccc(c32)[C@H]1C` (relative stereo), the IC50 was 25.7 µM.
`CC(C)=CN1Cc2cccc3[nH]c(=S)n(c23)[C@@H](C)[C@@H]1C` (relative stereo) was tested, and the IC50 was 14.5 µM.
`C[C@H]1Cn2c(=S)[nH]c3cc(Cl)cc(c32)CN1CC1CC1` gave an IC50 of 0.0339 µM.
`CC(C)=CN1CCn2c(=S)[nH]c3cccc(c32)C1C` (configuration not stated) showed an IC50 of 0.0776 µM.
`CC(C)=CN1Cc2c(C)ccc3[nH]c(=S)n(c23)C[C@@H]1C` showed an IC50 of 0.0136 µM.
With `CC(C)=CN1CCn2c(=O)[nH]c3cccc(c32)C1` the IC50 was 12.6 µM.
Work on `C=C(C)N1Cc2cc(Cl)cc3[nH]c(=S)n(c23)C(C)C1` (configuration not stated) yielded an IC50 of 0.676 µM.
Work on `CC(C)=CN1Cc2c(I)ccc3[nH]c(=O)n(c23)C[C@@H]1C` yielded an IC50 of 0.0871 µM.
Molecule `S=c1[nH]c2cccc3c2n1C(Cc1ccccc1)C(Cc1ccccc1)N(CC1CC1)C3` (configuration not stated) has an IC50 of 10 µM.
For `C#Cc1ccc2[nH]c(=S)n3c2c1CN(C=C(C)C)[C@@H](C)C3`, the IC50 was 0.0295 µM.
`CC(C)=CN1Cc2cccc3[nH]c(=S)n(c23)CC1C` (configuration not stated) gave an IC50 of 0.0977 µM.
Molecule `CC(C)=CN1[C@H](C)Cn2c(=O)[nH]c3cc(Cl)cc(c32)[C@H]1C` has an IC50 of 0.229 µM.
Work on `CC(C)=CN1Cc2c(Br)ccc3[nH]c(=S)n(c23)C[C@@H]1C` yielded an IC50 of 0.00301 µM.
In the case of `CC(C)=CN1[C@@H](C)Cn2c(=O)[nH]c3cc(Cl)cc(c32)[C@@H]1C`, the IC50 is reported as 5.01 µM.
For `CCCN1CCn2c(=O)[nH]c3cccc(c32)C1C` (configuration not stated), the IC50 was 83.2 µM.
Work on `C=C(C)N1Cc2cccc3[nH]c(=O)n(c23)C(CCC)C1` (configuration not stated) yielded an IC50 of 47.9 µM.
For `COc1ccc2c3c1[nH]c(=O)n3C[C@H](C)N(C=C(C)C)C2`, the IC50 was 6.61 µM.
`CC(C)=CN1[C@@H](C)Cn2c(=S)[nH]c3cccc(c32)[C@@H]1C` (relative stereo) was tested, and the IC50 was 0.0417 µM.
With `COc1ccc2[nH]c(=S)n3c2c1CN(C=C(C)C)[C@@H](C)C3` the IC50 was 0.034 µM.
With `COc1ccc2c3c1[nH]c(=S)n3C[C@H](C)N(C=C(C)C)C2` the IC50 was 4.68 µM.
`CC(C)=CN1Cc2c(C(N)=O)ccc3[nH]c(=O)n(c23)C[C@@H]1C` showed an IC50 of 6.35 µM.
`C=C(C)N1Cc2cccc3[nH]c(=O)n(c23)CC1CC` (configuration not stated) was tested, and the IC50 was 50.1 µM.
`CC(C)=CN1Cc2c(C#N)ccc3[nH]c(=S)n(c23)C[C@@H]1C` gave an IC50 of 0.0562 µM.
Work on `C[C@H]1Cn2c(=O)[nH]c3cc(N)cc(c32)CN1CC1CC1` yielded an IC50 of 60.5 µM.
`CC(C)=CN1CCn2c(=S)[nH]c3ccc(Cl)c(c32)C1C` (configuration not stated) showed an IC50 of 0.012 µM.
Molecule `S=c1[nH]c2cc(Cl)cc3c2n1CCN1CCCCC31` (configuration not stated) has an IC50 of 2 µM.
With `CCCN1Cc2cc(Cl)cc3[nH]c(=S)n(c23)C(=O)C1C` (configuration not stated) the IC50 was 50.1 µM.
`C=CCN1Cc2cccc3[nH]c(=O)n(c23)C[C@@H]1C` gave an IC50 of 70.1 µM.
For `CC(C)=CN1Cc2cc(F)cc3[nH]c(=S)n(c23)C[C@@H]1C`, the IC50 was 0.025 µM.
With `C[C@H]1[C@H](C)n2c(=S)[nH]c3cccc(c32)CN1CC1CC1` (relative stereo) the IC50 was 13.5 µM.
With `CC(C)=CN1Cc2c(Cl)ccc3[nH]c(=S)n(c23)C[C@@H]1C` the IC50 was 0.00501 µM.
`C/C=C1/C[C@H]2Cn3c(=S)[nH]c4cc(Cl)cc(c43)CN2C1` gave an IC50 of 3.8 µM.
In the case of `CC(C)=CN1Cc2c(C#N)ccc3[nH]c(=O)n(c23)C[C@@H]1C`, the IC50 is reported as 1.15 µM.
`CC(C)=CN1Cc2cccc3[nH]c(=O)n(c23)CC1C(C)C` (configuration not stated) gave an IC50 of 10 µM.
In the case of `C=C(C)N1CCn2c(=O)[nH]c3cccc(c32)C1`, the IC50 is reported as 46.8 µM.
In the case of `CC(C)=CN1Cc2c(C=O)ccc3[nH]c(=S)n(c23)C[C@@H]1C`, the IC50 is reported as 0.186 µM.
`CC(C)=CN1Cc2cccc3[nH]c(=O)n(c23)C[C@@H]1C` was tested, and the IC50 was 3.31 µM.
`CC(C)=CN1Cc2cc(Cl)cc3[nH]c(=O)n(c23)C[C@@H]1C` was tested, and the IC50 was 0.182 µM.
Work on `CCOc1ccc2[nH]c(=S)n3c2c1CN(C=C(C)C)[C@@H](C)C3` yielded an IC50 of 0.0959 µM.
`CC(C)=CN1Cc2cc(Cl)c(Cl)c3[nH]c(=S)n(c23)C[C@@H]1C` showed an IC50 of 0.0256 µM.
For `C=C(C)N1Cc2cccc3[nH]c(=O)n(c23)C(C(C)C)C1` (configuration not stated), the IC50 was 12.6 µM.
In the case of `CC(C)=CN1Cc2cccc3[nH]c(=S)n(c23)[C@@H](C)[C@H]1C` (relative stereo), the IC50 is reported as 2.24 µM.
`CC(C)=CN1Cc2c(F)ccc3[nH]c(=S)n(c23)C[C@@H]1C` was tested, and the IC50 was 0.00582 µM.
With `C[C@H]1Cn2c(=S)[nH]c3cccc(c32)CN1CC1CC1` the IC50 was 0.0603 µM.
In the case of `C=C(C)N1Cc2cccc3[nH]c(=O)n(c23)C(C)C1` (configuration not stated), the IC50 is reported as 32.4 µM.
`C=C(C)N1Cc2cccc3[nH]c(=O)n(c23)CC1C(C)C` (configuration not stated) gave an IC50 of 10 µM.
`C#Cc1ccc2[nH]c(=O)n3c2c1CN(C=C(C)C)[C@@H](C)C3` was tested, and the IC50 was 0.437 µM.
In the case of `CC(C)=CN1Cc2ccc(Br)c3[nH]c(=S)n(c23)C[C@@H]1C`, the IC50 is reported as 1.07 µM.
Work on `CC(C)=CN1[C@H](C)Cn2c(=S)[nH]c3cc(Cl)cc(c32)[C@H]1C` yielded an IC50 of 0.479 µM.
In the case of `CC(C)=CN1CCn2c(=S)[nH]c3cc(Cl)cc(c32)C1`, the IC50 is reported as 0.162 µM.
With `CC(C)=CN1Cc2c(C)ccc3[nH]c(=O)n(c23)C[C@@H]1C` the IC50 was 1 µM.
